Values of other authors, collected in PMC12866175 (European journal of nuclear medicine and molecular imaging, 2021).

Columns and labels:
[1] = system: NETs; conditions: cited from earlier work
[2] = system: tumor; conditions: human, in vivo; cited from earlier work

[^177Lu]Lu-DOTA-TATE
patients achieving stable disease [1]: 26–55% | patients treatment refractory [1]: 18–32% | time after starting treatment within which half progress [1]: 2 to 3 years | tumor residence time compared with [^177Lu]Lu-DOTATOC [2]: greater tumor residence time
